Laboratory results taken from the OligoGym collection.
Oligonucleotides are written 5' to 3', each unit as a sugar letter and its base; * is a phosphorothioate linkage, no mark a phosphodiester; rarer units and linkages stand in square brackets, end groups in braces. Plain capitals give the bases only. Oligonucleotides are given in HELM: sugar(base)linkage, 5' to 3'; d 2'-deoxyribose, r ribose, m 2'-O-methylribose, p phosphate. ss, as = sense and antisense strand; d = 2'-deoxy (DNA); r = 2'-OH (RNA)

biological target: UBE2I; assay: reporter assay of Huesken 2005; conditions: siRNA
Also: test concentration or dose not given here.

Substance	normalised inhibition (eCFP-eYFP dual reporter)
sense rCrGrArUrGrArArCrCrUrCrArUrGrArArCrUrGdTdT / antisense rCrArGrUrUrCrArUrGrArGrGrUrUrCrArUrCrGdTdG	78.2%
sense rUrUrArArArCrUrArCrGrGrArUrGrCrUrUrUrUdTdT / antisense rArArArArGrCrArUrCrCrGrUrArGrUrUrUrArAdAdC	50.2%
sense rGrUrArArArUrUrCrGrArArCrCrArCrCrArUrUdTdT / antisense rArArUrGrGrUrGrGrUrUrCrGrArArUrUrUrArCdAdT	89.2%
sense rArArGrArArArGrGrGrArCrUrCrCrGrUrGrGrGdTdT / antisense rCrCrCrArCrGrGrArGrUrCrCrCrUrUrUrCrUrUdTdC	45.6%

biological target: CDC34; assay: reporter assay of Huesken 2005; conditions: siRNA

Substance	normalised inhibition (eCFP-eYFP dual reporter)
RNA1{r(A)p.r(G)p.r(G)p.r(A)p.r(A)p.r(G)p.r(A)p.r(G)p.r(C)p.r(C)p.r(G)p.r(G)p.r(U)p.r(C)p.r(G)p.r(A)p.r(G)p.r(G)p.r(G)p.d(T)p.d(T)}|RNA2{r(C)p.r(C)p.r(C)p.r(U)p.r(C)p.r(G)p.r(A)p.r(C)p.r(C)p.r(G)p.r(G)p.r(C)p.r(U)p.r(C)p.r(U)p.r(U)p.r(C)p.r(C)p.r(U)p.d(G)p.d(C)}$$$RNA1{StrandType:ss}|RNA2{StrandType:as}$	44.3%
RNA1{r(A)p.r(G)p.r(G)p.r(U)p.r(G)p.r(G)p.r(A)p.r(A)p.r(C)p.r(C)p.r(C)p.r(C)p.r(A)p.r(C)p.r(G)p.r(C)p.r(A)p.r(G)p.r(A)p.d(T)p.d(T)}|RNA2{r(U)p.r(C)p.r(U)p.r(G)p.r(C)p.r(G)p.r(U)p.r(G)p.r(G)p.r(G)p.r(G)p.r(U)p.r(U)p.r(C)p.r(C)p.r(A)p.r(C)p.r(C)p.r(U)p.d(C)p.d(T)}$$$RNA1{StrandType:ss}|RNA2{StrandType:as}$	72.6%
RNA1{r(A)p.r(C)p.r(U)p.r(A)p.r(C)p.r(G)p.r(A)p.r(G)p.r(G)p.r(G)p.r(C)p.r(G)p.r(G)p.r(C)p.r(U)p.r(A)p.r(C)p.r(U)p.r(U)p.d(T)p.d(T)}|RNA2{r(A)p.r(A)p.r(G)p.r(U)p.r(A)p.r(G)p.r(C)p.r(C)p.r(G)p.r(C)p.r(C)p.r(C)p.r(U)p.r(C)p.r(G)p.r(U)p.r(A)p.r(G)p.r(U)p.d(A)p.d(G)}$$$RNA1{StrandType:ss}|RNA2{StrandType:as}$	73.7%
RNA1{r(A)p.r(A)p.r(C)p.r(G)p.r(U)p.r(G)p.r(G)p.r(A)p.r(C)p.r(G)p.r(C)p.r(C)p.r(U)p.r(C)p.r(C)p.r(G)p.r(U)p.r(G)p.r(A)p.d(T)p.d(T)}|RNA2{r(U)p.r(C)p.r(A)p.r(C)p.r(G)p.r(G)p.r(A)p.r(G)p.r(G)p.r(C)p.r(G)p.r(U)p.r(C)p.r(C)p.r(A)p.r(C)p.r(G)p.r(U)p.r(U)p.d(T)p.d(G)}$$$RNA1{StrandType:ss}|RNA2{StrandType:as}$	55.2%
RNA1{r(C)p.r(A)p.r(G)p.r(G)p.r(U)p.r(C)p.r(C)p.r(U)p.r(G)p.r(G)p.r(G)p.r(G)p.r(A)p.r(C)p.r(C)p.r(A)p.r(A)p.r(G)p.r(G)p.d(T)p.d(T)}|RNA2{r(C)p.r(C)p.r(U)p.r(U)p.r(G)p.r(G)p.r(U)p.r(C)p.r(C)p.r(C)p.r(C)p.r(A)p.r(G)p.r(G)p.r(A)p.r(C)p.r(C)p.r(U)p.r(G)p.d(C)p.d(T)}$$$RNA1{StrandType:ss}|RNA2{StrandType:as}$	43%
RNA1{r(C)p.r(C)p.r(U)p.r(C)p.r(C)p.r(U)p.r(G)p.r(A)p.r(A)p.r(C)p.r(G)p.r(A)p.r(G)p.r(C)p.r(C)p.r(C)p.r(A)p.r(A)p.r(C)p.d(T)p.d(T)}|RNA2{r(G)p.r(U)p.r(U)p.r(G)p.r(G)p.r(G)p.r(C)p.r(U)p.r(C)p.r(G)p.r(U)p.r(U)p.r(C)p.r(A)p.r(G)p.r(G)p.r(A)p.r(G)p.r(G)p.d(G)p.d(A)}$$$RNA1{StrandType:ss}|RNA2{StrandType:as}$	68.2%
RNA1{r(G)p.r(G)p.r(G)p.r(C)p.r(G)p.r(G)p.r(C)p.r(U)p.r(A)p.r(C)p.r(U)p.r(U)p.r(C)p.r(A)p.r(A)p.r(G)p.r(G)p.r(C)p.r(G)p.d(T)p.d(T)}|RNA2{r(C)p.r(G)p.r(C)p.r(C)p.r(U)p.r(U)p.r(G)p.r(A)p.r(A)p.r(G)p.r(U)p.r(A)p.r(G)p.r(C)p.r(C)p.r(G)p.r(C)p.r(C)p.r(C)p.d(T)p.d(C)}$$$RNA1{StrandType:ss}|RNA2{StrandType:as}$	29.8%
RNA1{r(A)p.r(C)p.r(G)p.r(U)p.r(C)p.r(A)p.r(G)p.r(G)p.r(A)p.r(C)p.r(C)p.r(A)p.r(U)p.r(U)p.r(C)p.r(U)p.r(C)p.r(C)p.r(U)p.d(T)p.d(T)}|RNA2{r(A)p.r(G)p.r(G)p.r(A)p.r(G)p.r(A)p.r(A)p.r(U)p.r(G)p.r(G)p.r(U)p.r(C)p.r(C)p.r(U)p.r(G)p.r(A)p.r(C)p.r(G)p.r(U)p.d(T)p.d(C)}$$$RNA1{StrandType:ss}|RNA2{StrandType:as}$	72.2%
RNA1{r(G)p.r(C)p.r(U)p.r(G)p.r(C)p.r(C)p.r(C)p.r(U)p.r(C)p.r(A)p.r(G)p.r(A)p.r(G)p.r(A)p.r(G)p.r(G)p.r(U)p.r(G)p.r(G)p.d(T)p.d(T)}|RNA2{r(C)p.r(C)p.r(A)p.r(C)p.r(C)p.r(U)p.r(C)p.r(U)p.r(C)p.r(U)p.r(G)p.r(A)p.r(G)p.r(G)p.r(G)p.r(C)p.r(A)p.r(G)p.r(C)p.d(T)p.d(C)}$$$RNA1{StrandType:ss}|RNA2{StrandType:as}$	39.3%
RNA1{r(A)p.r(C)p.r(G)p.r(C)p.r(U)p.r(G)p.r(G)p.r(C)p.r(C)p.r(G)p.r(A)p.r(G)p.r(U)p.r(A)p.r(C)p.r(U)p.r(G)p.r(C)p.r(G)p.d(T)p.d(T)}|RNA2{r(C)p.r(G)p.r(C)p.r(A)p.r(G)p.r(U)p.r(A)p.r(C)p.r(U)p.r(C)p.r(G)p.r(G)p.r(C)p.r(C)p.r(A)p.r(G)p.r(C)p.r(G)p.r(U)p.d(G)p.d(G)}$$$RNA1{StrandType:ss}|RNA2{StrandType:as}$	52.4%
RNA1{r(A)p.r(C)p.r(C)p.r(U)p.r(C)p.r(U)p.r(U)p.r(C)p.r(U)p.r(A)p.r(C)p.r(G)p.r(A)p.r(C)p.r(G)p.r(A)p.r(C)p.r(U)p.r(A)p.d(T)p.d(T)}|RNA2{r(U)p.r(A)p.r(G)p.r(U)p.r(C)p.r(G)p.r(U)p.r(C)p.r(G)p.r(U)p.r(A)p.r(G)p.r(A)p.r(A)p.r(G)p.r(A)p.r(G)p.r(G)p.r(U)p.d(C)p.d(T)}$$$RNA1{StrandType:ss}|RNA2{StrandType:as}$	89.3%
RNA1{r(G)p.r(C)p.r(G)p.r(C)p.r(C)p.r(U)p.r(C)p.r(A)p.r(A)p.r(G)p.r(U)p.r(U)p.r(C)p.r(C)p.r(C)p.r(C)p.r(A)p.r(U)p.r(C)p.d(T)p.d(T)}|RNA2{r(G)p.r(A)p.r(U)p.r(G)p.r(G)p.r(G)p.r(G)p.r(A)p.r(A)p.r(C)p.r(U)p.r(U)p.r(G)p.r(A)p.r(G)p.r(G)p.r(C)p.r(G)p.r(C)p.d(G)p.d(C)}$$$RNA1{StrandType:ss}|RNA2{StrandType:as}$	58%
RNA1{r(U)p.r(G)p.r(A)p.r(U)p.r(C)p.r(U)p.r(C)p.r(C)p.r(C)p.r(U)p.r(C)p.r(C)p.r(U)p.r(G)p.r(A)p.r(A)p.r(C)p.r(G)p.r(A)p.d(T)p.d(T)}|RNA2{r(U)p.r(C)p.r(G)p.r(U)p.r(U)p.r(C)p.r(A)p.r(G)p.r(G)p.r(A)p.r(G)p.r(G)p.r(G)p.r(A)p.r(G)p.r(A)p.r(U)p.r(C)p.r(A)p.d(C)p.d(A)}$$$RNA1{StrandType:ss}|RNA2{StrandType:as}$	70%
